The source of these data is patent US6784137B2, “6-aryl-4-aminopicolinates and their use as herbicides” (Dow AgroSciences LLC, priority 2001, dated 2004).

In data set [1] the test system is Pigweed (redroot) (Amaranthus retroflexus). Description: Postemergence herbicidal activity, greenhouse spray. It is filed as in vivo. The note with it: visual score after 2 weeks; for pest or weed control at 62.5 µg/mL: Amaranthus retroflexus, post-emergence, 336 h, rate 62.5 (unit inferred), read-out: Post-emergent % control AMARE; for Post-emergent % control AMARE: rate 62.5 (unit not given). The procedure, abridged:
(§1)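 Seedlings were raised under greenhouse conditions for 7-21 days and used at the first or second true leaf stage. Each was sprayed evenly with about 1.5 mL of test solution by atomizer at […]. Treated pots then returned to the greenhouse, watered from below to avoid wash-off.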

The subject of data set [2] is Corn (#14 3377) (Zea mays). Description: Postemergence herbicidal activity, selectivity to corn. It is filed as in vivo. To be noted: post-emergence, 336 h, Table 4, rate 62.5 (unit inferred), crop injury, read-out: Post-emergent % control ZEAMX. As to the method: (§2) Seeds of the desired test plant species were planted in Grace-Sierra MetroMix® 306 planting mixture, which typically has a pH of 6.0 to 6.8 and an organic matter content of about 30 percent, in plastic pots with a surface area of 64 square centimeters. When required to ensure good germination and healthy plants, a fungicide treatment and/or other chemical or physical treatment was applied. The plants were grown for 7-21 days in a greenhouse with an approximate 15 hr photoperiod which was maintained at about 23-29° C. during the day and 22-28° C. during the night. Nutrients and water were added on a regular basis and supplemental lighting was provided with overhead metal halide 1000-Watt lamps as necessary. The plants were employed for testing when they reached the first or second true leaf stage. A weighed amount, determined by the highest rate to be tested, of each test compound was placed in a 20 mL glass vial and was dissolved in 4 mL of a 97:3 v/v (volume/volume) mixture of acetone and dimethyl sulfoxide (DMSO) to obtain concentrated stock solutions. […] The concentrated stock solutions obtained were diluted with an aqueous mixture containing acetone, water, isopropyl alcohol, DMSO, At plus 411 F crop oil concentrate, and Triton X-155 surfactant in a 48.5:39:10:1.5:1.0:0.02 v/v ratio to obtain spray solutions of known concentration. The solutions containing the highest concentration to be tested were prepared by diluting 2 mL aliquots of the stock solution with 13 mL of the mixture and lower concentrations were prepared by serial dilution of the stock solution. Approximately 1.5 mL aliquots of each solution of known concentration were sprayed evenly onto each of the test plant pots using a DeVilbiss atomizer driven by compressed air pressure of […] (140 to 280 kiloPascals) to obtain thorough coverage of each plant. Control plants were sprayed in the same manner with the aqueous mixture. In this test an application rate of 1 ppm results in the application of approximately 1 g/Ha. The treated plants and control plants were placed in a greenhouse as described above and watered by sub-irrigation to prevent wash-off of the test compounds. After 2 weeks the condition of the test plants as compared with that of the untreated plants was determined visually and scored on a scale of 0 to 100 percent where 0 corresponds to no injury and 100 corresponds to complete kill.

In data set [3] the test system is Barnyardgrass (Echinochloa crus-galli). Description: Postemergence herbicidal activity, greenhouse spray. It is filed as in vivo. The note with it: Echinochloa crus-galli, post-emergence, 336 h, visual score after 2 weeks, read-out: Post-emergent % control ECHCG; for pest or weed control at 250 ppm / pest or weed control at 500 ppm: Table 1; for pest or weed control at 250 ppm: rate 250 ppm; for pest or weed control at 125 ppm: Table 2, rate 125 ppm; for pest or weed control at 500 ppm: rate 500 ppm. In a few lines: as §1

Data set [4] relates to Cocklebur (Xanthium strumarium). The description is as above. It is filed as in vivo. To be noted: Xanthium strumarium, post-emergence, 336 h, visual score after 2 weeks, read-out: Post-emergent % control XANST; for pest or weed control at 250 ppm / pest or weed control at 500 ppm: Table 1; for pest or weed control at 250 ppm: rate 250 ppm; for pest or weed control at 125 ppm: Table 2, rate 125 ppm; for pest or weed control at 500 ppm: rate 500 ppm, 0 no injury, 100 complete kill. In a few lines:
as §1

Data set [5] has as its system Lambsquarter (Chenopodium album). The description is as above. It is filed as in vivo. The note with it: Chenopodium album, post-emergence, 336 h, visual score after 2 weeks, read-out: Post-emergent % control CHEAL; for pest or weed control at 250 ppm / pest or weed control at 500 ppm: Table 1; for pest or weed control at 250 ppm: rate 250 ppm; for pest or weed control at 125 ppm: Table 2, rate 125 ppm; for pest or weed control at 500 ppm: rate 500 ppm. In a few lines: as §1

Data set [6] concerns Yellow nutsedge (Cyperus esculentus). The description is as above. The class given is in vivo. The note with it: Cyperus, post-emergence, 336 h, visual score after 2 weeks, read-out: Post-emergent % control CYPES; for pest or weed control at 250 ppm / pest or weed control at 500 ppm: Table 1; for pest or weed control at 250 ppm: rate 250 ppm; for pest or weed control at 125 ppm: Table 2, rate 125 ppm; for pest or weed control at 500 ppm: rate 500 ppm. In a few lines:
as §1

Data set [7] deals with Crabgrass(large) (Digitaria sanguinalis). The data set is described as follows: Preemergence herbicidal activity, soil spray. The class given is in vivo. The note with it: Digitaria sanguinalis, pre-emergence, 504 h; Table 5; rate 560 ppm; visual score after 3 weeks; read-out: Pre-emergent % control DIGSA. In a few lines: (§3)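 Soil spray, preemergence: loam/sand 70:30 (pH ~8.1, OM ~1.5%) → seeded pots treated on surface; compound in acetone/DMSO 97:3, serially diluted into water/Tween 155 (99.9:0.1). Controls got aqueous carrier only. Greenhouse: ~15 h light, 23-29° C day / 22-28° C night.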

Data set [8] relates to Giant Foxtail (Setaria faberi). The data set is described as follows: Preemergence herbicidal activity, soil spray. To be noted: Setaria faberi, pre-emergence, 504 h, Table 5; rate 560 ppm; visual score after 3 weeks; read-out: Pre-emergent % control SETFA. It is filed as in vivo. In a few lines: as §3
Data set [9] relates to Lambsquarter (Chenopodium album). Description: Preemergence herbicidal activity, soil spray. The class given is in vivo. The note with it: Chenopodium album, pre-emergence, 504 h; Table 5; rate 560 ppm; visual score after 3 weeks, 100 complete kill or no germination; read-out: Pre-emergent % control CHEAL. In a few lines: as §3
Data set [10] relates to Pigweed (redroot) (Amaranthus retroflexus). The data set is described as follows: Preemergence herbicidal activity, soil spray. The class given is in vivo. To be noted: Amaranthus retroflexus, pre-emergence, 504 h; Table 5; rate 560 ppm; visual score after 3 weeks; read-out: Pre-emergent % control AMARE. The procedure, abridged: as §3
Data set [11] concerns Wheat(var. Merica) (Triticum aestivum). Description: Postemergence herbicidal activity, selectivity to wheat. The class given is in vivo. To be noted: post-emergence, 336 h, Table 3, rate 62.5 (unit inferred), crop injury, read-out: Post-emergent % control TRZAS. As to the method: as §2

Where two headings read alike, the source gives them in different places.

Regarding `Cc1cc(Cl)ccc1-c1cc(N)c(Cl)c(C(=O)O)n1` [Compound 155, 4-Amino-3-chloro-6-(4-chloro-2-methylphenyl)pyridine-2-carboxylic acid], the melting point – broadly, the temperature of the solid-liquid transition – was 153 to 154 °C. Further, the pest or weed control at 62.5 µg/mL in data set [1] (Table 4) came to 100%. The pest or weed control at 62.5 µg/mL in data set [2] came to 0%.

`Nc1cc(-c2ccc(Cl)cc2Cl)nc(C(=O)O)c1Cl` [Compound 146, 4-Amino-3-chloro-6-(2,4-dichlorophenyl)pyridine-2-carboxylic acid] had a melting point of 176 to 177 °C. Also, in [3], the pest or weed control at 250 ppm was 85% and the pest or weed control at 125 ppm was determined as 75%. Besides, in data set [4], the pest or weed control at 250 ppm came out at 100% and the pest or weed control at 125 ppm worked out at 100%. In data set [5], the pest or weed control at 250 ppm was determined as 100% and the pest or weed control at 125 ppm is 100%. The pest or weed control at 62.5 µg/mL in data set [1] (Table 4) was found to be 100%. Moreover, in [6], the pest or weed control at 250 ppm was 98% and the pest or weed control at 125 ppm turned out to be 95%. For the same molecule, the pest or weed control at 62.5 µg/mL in data set [2] amounted to 0%. The pest or weed control at 560 ppm in data set [7] amounted to 80%. The pest or weed control at 560 ppm in data set [8] is 90%. Also, the pest or weed control at 560 ppm in data set [9] is 100%. The pest or weed control at 560 ppm in [10] was 100%.

`COC(=O)c1nc(-c2ccc(C)c(C)c2)cc(N)c1Cl` [Compound 12, methyl 4-amino-3-chloro-6-(3,4-dimethylphenyl)pyridine-2-carboxylate]: the melting point lay in the range of 154 to 156 °C. Also, the pest or weed control at 500 ppm in [3] amounted to 95%. For the same molecule, the pest or weed control at 500 ppm in data set [4] was determined as 100%. Further, the pest or weed control at 500 ppm in data set [5] turned out to be 95%. In data set [1] (Table 3), the pest or weed control at 62.5 µg/mL is 70%. The “Post-emergent % control AMARE” value in [1] (Table 4) turned out to be 70%. The pest or weed control at 500 ppm in [6] was found to be 30%. Moreover, in data set [11], the pest or weed control at 62.5 µg/mL is 0%. In addition, the pest or weed control at 62.5 µg/mL in [2] amounted to 10%. Besides, the pest or weed control at 560 ppm in data set [7] was found to be 40%. Also, the pest or weed control at 560 ppm in data set [8] is 30%. In [9], the pest or weed control at 560 ppm came to 98%. Further, the pest or weed control at 560 ppm in [10] came to 100%.

The molecule `COC(=O)c1nc(-c2cccc(C)c2)cc(N)c1Cl` [Compound 21, Methyl 4-amino-3-chloro-6-(3-methylphenyl)pyridine-2-carboxylate] registered a melting point of 98 °C. In addition, the pest or weed control at 250 ppm in data set [3] worked out at 0%. For the same molecule, the pest or weed control at 250 ppm in data set [4] is 100%. In addition, the pest or weed control at 250 ppm in data set [5] came out at 100%. Further, in [1] (Table 3), the pest or weed control at 62.5 µg/mL worked out at 70%. Further, the “Post-emergent % control AMARE” value in data set [1] (Table 4) worked out at 70%. Moreover, the pest or weed control at 250 ppm in data set [6] amounted to 70%. Moreover, the pest or weed control at 62.5 µg/mL in [11] stood at 10%. The pest or weed control at 62.5 µg/mL in [2] was found to be 0%. For the same molecule, the pest or weed control at 560 ppm in [7] worked out at 100%. In addition, in data set [8], the pest or weed control at 560 ppm was 80%. Further, the pest or weed control at 560 ppm in [9] was found to be 100%. Moreover, the pest or weed control at 560 ppm in data set [10] worked out at 100%.

For `COC(=O)c1nc(-c2ccc(Cl)cc2C)cc(N)c1Cl` [Compound 45, Methyl 4-amino-3-chloro-6-(4-chloro-2-methylphenyl)pyridine-2-carboxylate], the melting point lay in the range of 114 to 115 °C. Further, the pest or weed control at 62.5 µg/mL in data set [1] (Table 4) was 100%. Besides, the pest or weed control at 62.5 µg/mL in [2] is 0%.

As for `COC(=O)c1nc(-c2ccc(Cl)cc2)cc(NC(C)=O)c1Cl` [Compound 53, Methyl 4-acetamido-3-chloro-6-(4-chlorophenyl)pyridine-2-carboxylate], the melting point lay in the range of 151 to 152 °C. Moreover, the pest or weed control at 62.5 µg/mL in data set [1] (Table 3) is 70%. The “Post-emergent % control AMARE” value in [1] (Table 4) is 70%. Further, in [11], the pest or weed control at 62.5 µg/mL was 0%. Further, the pest or weed control at 62.5 µg/mL in data set [2] worked out at 10%. Also, the pest or weed control at 560 ppm in data set [7] is 100%. Besides, the pest or weed control at 560 ppm in data set [8] was 100%. Also, the pest or weed control at 560 ppm in data set [9] worked out at 100%. In data set [10], the pest or weed control at 560 ppm was 100%.

The molecule `Cc1ccc(-c2cc(N)c(Cl)c(C(=O)O)n2)cc1` [Compound 136, 4-Amino-3-chloro-6-(4-methylphenyl)pyridine-2-carboxylic acid] showed a melting point of 166 to 167 °C. Besides, in [3], the pest or weed control at 250 ppm stood at 70% and the pest or weed control at 125 ppm came to 70%. In [4], the pest or weed control at 250 ppm was 100% and the pest or weed control at 125 ppm came out at 100%. Besides, in data set [5], the pest or weed control at 250 ppm came to 100% and the pest or weed control at 125 ppm was found to be 100%. Besides, the pest or weed control at 62.5 µg/mL in data set [1] (Table 3) is 100%. In data set [6], the pest or weed control at 250 ppm is 80% and the pest or weed control at 125 ppm worked out at 70%. Moreover, the pest or weed control at 62.5 µg/mL in data set [11] came out at 0%. The pest or weed control at 560 ppm in data set [7] amounted to 100%. In [8], the pest or weed control at 560 ppm worked out at 100%. For the same molecule, the pest or weed control at 560 ppm in data set [9] was 100%. In addition, the pest or weed control at 560 ppm in data set [10] is 100%.

In turn, `COC(=O)c1nc(-c2ccc(F)cc2Cl)cc(N)c1Cl` [Compound 58, Methyl 4-amino-3-chloro-6-(2-chloro-4-fluorophenyl)pyridine-2-carboxylate] returned a melting point of 155 to 157 °C. Further, the pest or weed control at 500 ppm in data set [3] came out at 70%. The pest or weed control at 500 ppm in [4] stood at 100%. For the same molecule, in [5], the pest or weed control at 500 ppm is 100%. Moreover, the pest or weed control at 62.5 µg/mL in [1] (Table 4) was found to be 100%. For the same molecule, the pest or weed control at 500 ppm in data set [6] was 70%. In addition, the pest or weed control at 62.5 µg/mL in [2] worked out at 0%.
